Data taken from patent US7361668B2 (priority 2001, dated 2008).

test system: muscarinic; conditions: cited from earlier work

Compound | muscarinic anticholinergic activity
OC(C#CC1CN2CCC1CC2)(c1ccccc1)c1ccccc1 (stereo not drawn) [Alpha-(1-azabicyclo[2.2.2]oct-3-ylethynyl)-alpha-phenyl benzenemethanol] | marked muscarinic anticholinergic activity

target: T1, human recombinant m3 receptor (Homo sapiens, UniProt P20309); format: binding; conditions: not given
T1 construct: expressed in transfected cells; host or cells: CHO cells (membrane preparation)
T1 sequence (P20309 whole entry): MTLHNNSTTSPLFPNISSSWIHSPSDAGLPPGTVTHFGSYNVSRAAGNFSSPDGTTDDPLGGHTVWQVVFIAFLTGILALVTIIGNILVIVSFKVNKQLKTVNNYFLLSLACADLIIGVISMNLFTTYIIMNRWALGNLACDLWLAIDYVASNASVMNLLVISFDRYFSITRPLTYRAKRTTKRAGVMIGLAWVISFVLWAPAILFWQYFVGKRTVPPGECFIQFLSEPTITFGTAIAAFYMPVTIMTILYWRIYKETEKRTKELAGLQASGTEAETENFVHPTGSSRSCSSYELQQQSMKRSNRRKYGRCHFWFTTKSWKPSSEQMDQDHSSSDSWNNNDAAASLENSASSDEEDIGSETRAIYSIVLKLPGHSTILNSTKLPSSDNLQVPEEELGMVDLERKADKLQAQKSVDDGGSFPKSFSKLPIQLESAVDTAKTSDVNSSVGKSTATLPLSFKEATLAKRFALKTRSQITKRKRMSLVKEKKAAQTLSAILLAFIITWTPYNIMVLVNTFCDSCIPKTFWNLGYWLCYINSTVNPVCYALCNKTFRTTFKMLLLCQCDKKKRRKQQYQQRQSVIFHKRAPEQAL

Compound | affinity (in words)
CO[C@]1(C#CC(O)(c2ccccc2)C2CCCCCC2)CN2CCC1CC2 (stereo partly drawn) [Compound 116, 1-cycloheptyl-3-[(3R)-3-methoxy-1-azabicyclo[2.2.2]oct-3-yl]-1-phenyl-2-propyn-1-ol] | High affinities
CO[C@]1(C#CC(O)(c2ccccc2)C2CCC=CCC2)CN2CCC1CC2 (stereo partly drawn) [Compound 126, 1-(4-cyclohepten-1-yl)-3-[(3R)-3-methoxy-1-azabicyclo[2.2.2]oct-3-yl]-1-phenyl-2-propyn-1-ol] | High affinities
CO[C@]1(C#CC(O)(c2cccs2)C2CCCCCC2)CN2CCC1CC2 (stereo partly drawn) [Compound 123, 1-cycloheptyl-3-[(3R)-3-methoxy-1-azabicyclo[2.2.2]oct-3-yl]-1-(2-thienyl)-2-propyn-1-ol] | High affinities
COC1(C#CC(C#N)(c2ccccc2)c2ccccc2)CN2CCC1CC2 (racemic) [Compound 64, 4-(3-methoxy-1-azabicyclo[2.2.2]oct-3-yl)-2,2-diphenyl-3-butynenitrile] | High affinities
C=CCCC(O)(C#C[C@@]1(OC)CN2CCC1CC2)c1ccccc1 (stereo partly drawn) [Compound 169, 1-[(3R)-3-methoxy-1-azabicyclo[2.2.2]oct-3-yl]-3-phenyl-6-hepten-1-yn-3-ol] | High affinities
CO[C@]1(C#C[C@@](O)(c2ccccc2)C2CCCCCC2)CN2CCC1CC2 [Compound 118, (1S)-1-cycloheptyl-3-[(3R)-3-methoxy-1-azabicyclo[2.2.2]oct-3-yl]-1-phenyl-2-propyn-1-ol] | High affinities
CO[C@]1(C#CC(O)(c2ccccc2)c2ccc3c(c2)CCC3)CN2CCC1CC2 (stereo partly drawn) [Compound 80, 1-(2,3-dihydro-1H-inden-5-yl)-3-[(3R)-3-methoxy-1-azabicyclo[2.2.2]oct-3-yl]-1-phenyl-2-propyn-1-ol] | High affinities
CO[C@]1(C#CC(O)(c2ccc(F)cc2)c2ccc(F)nc2)CN2CCC1CC2 (stereo partly drawn) [Compound 139, 1-(4-fluorophenyl)-1-(6-fluoro-3-pyridinyl)-3-[(3R)-3-methoxy-1-azabicyclo[2.2.2]oct-3-yl]-2-propyn-1-ol] | High affinities
CO[C@]1(C#CC(F)(c2ccccc2)C2CCCCC2)CN2CCC1CC2 (stereo partly drawn) [Compound 113, (3R)-3-(3-cyclohexyl-3-fluoro-3-phenyl-1-propynyl)-3-methoxy-1-azabicyclo[2.2.2]octane] | High affinities
CO[C@]1(C#CC(O)(c2cccs2)c2cccs2)C[N+]2(C)CCC1CC2.[I-] [Compound 155, (3R)-3-[3-hydroxy-3,3-di(2-thienyl)-1-propynyl]-3-methoxy-1-methyl-1-azoniabicyclo[2.2.2]octane iodide] | High affinities
CO[C@]1(C#CC(O)(c2cccnc2F)C2CCCCCC2)CN2CCC1CC2 (stereo partly drawn) [Compound 124, 1-cycloheptyl-1-(2-fluoro-3-pyridinyl)-3-[(3R)-3-methoxy-1-azabicyclo[2.2.2]oct-3-yl]-2-propyn-1-ol] | High affinities
CO[C@]1(C#C[C@](O)(c2ccccc2)C2CCCCCC2)C[N+]2(C)CCC1CC2.[I-] [Compound 119, (3R)-3-[(3R)-3-cycloheptyl-3-hydroxy-3-phenyl-1-propynyl]-3-methoxy-1-methyl-1-azoniabicyclo[2.2.2]octane iodide] | High affinities
CO[C@]1(C#CC(O)(c2ccccc2)C2CC3CCC(C2)S3)CN2CCC1CC2 (stereo partly drawn) [Compound 177, 3-[(3R)-3-methoxy-1-azabicyclo[2.2.2]oct-3-yl]-1-phenyl-1-(8-thiabicyclo[3.2.1]oct-3-yl)-2-propyn-1-ol] | High affinities
CO[C@]1(C#CC(O)(c2ccccc2)C2CC3CCC(C3)C2)CN2CCC1CC2 (stereo partly drawn) [Compound 176, 1-bicyclo[3.2.1]oct-3-yl-3-[(3R)-3-methoxy-1-azabicyclo[2.2.2]oct-3-yl]-1-phenyl-2-propyn-1-ol] | High affinities
CO[C@]1(C#CC(O)(c2ccccc2)c2cccc(C)c2)CN2CCC1CC2 (stereo partly drawn) [Compound 72, 3-[(3R)-3-methoxy-1-azabicyclo[2.2.2]oct-3-yl]-1-(3-methylphenyl)-1-phenylprop-2-yn-1-ol] | High affinities
CO[C@]1(C#CC(O)(c2ccccn2)c2ccc(Cl)s2)CN2CCC1CC2 (stereo partly drawn) [Compound 190, 1-(5-chloro-2-thienyl)-3-[(3R)-3-methoxy-1-azabicyclo[2.2.2]oct-3-yl]-1-(2-pyridinyl)-2-propyn-1-ol] | High affinities

Compound | affinity (in words)
CO[C@]1(C#CC(O)(c2ccccc2)C2CCSCC2)CN2CCC1CC2 (stereo partly drawn) [Compound 174, 3-[(3R)-3-methoxy-1-azabicyclo[2.2.2]oct-3-yl]-1-phenyl-1-tetrahydro-2H-thiopyran-4-yl-2-propyn-1-ol] | High affinities
CO[C@]1(C#CC(O)(c2ccccc2)C2CSCCSC2)CN2CCC1CC2 (stereo partly drawn) [Compound 172, 1-(1,4-dithiepan-6-yl)-3-[(3R)-3-methoxy-1-azabicyclo[2.2.2]oct-3-yl]-1-phenyl-2-propyn-1-ol] | High affinities
CO[C@]1(C#CC(O)(CC2CCCC2)c2cccs2)CN2CCC1CC2 (stereo partly drawn) [Compound 188, 1-cyclopentyl-4-[(3R)-3-methoxy-1-azabicyclo[2.2.2]oct-3-yl]-2-(2-thienyl)-3-butyn-2-ol] | High affinities
CO[C@]1(C#CC(O)(c2cccs2)C2CCCCC2)CN2CCC1CC2 (stereo partly drawn) [Compound 115, 1-cyclohexyl-3-[(3R)-3-methoxy-1-azabicyclo[2.2.2]oct-3-yl]-1-(2-thienyl)-2-propyn-1-ol] | High affinities
CO[C@]1(C#CC(O)(c2ccccc2)C2CCCCCCC2)CN2CCC1CC2 (stereo partly drawn) [Compound 90, 1-cyclooctyl-3-[(3R)-3-methoxy-1-azabicyclo[2.2.2]oct-3-yl]-1-phenyl-2-propyn-1-ol] | High affinities
CO[C@]1(C#CC(O)(c2ccc(F)cc2)c2cccnc2F)CN2CCC1CC2 (stereo partly drawn) [Compound 141, 1-(4-fluorophenyl)-1-(2-fluoro-3-pyridinyl)-3-[(3R)-3-methoxy-1-azabicyclo[2.2.2]oct-3-yl]-2-propyn-1-ol] | High affinities
CO[C@]1(C#CC(O)(c2ccccc2)C2CCCCCCC2)CN2CCC1CC2 (stereo partly drawn) [Compound 89, 1-cyclooctyl-3-[(3R)-3-methoxy-1-azabicyclo[2.2.2]oct-3-yl]-1-phenyl-2-propyn-1-ol] | High affinities
COC1(C#CC(O)(c2ccccc2)C2CC3C=CC2C3)CN2CCC1CC2 (stereo not drawn) [Compound 166, 1-bicyclo[2.2.1]hept-5-en-2-yl-3-(3-methoxy-1-azabicyclo[2.2.2]oct-3-yl)-1-phenyl-2-propyn-1-ol] | High affinities
CO[C@]1(C#CC(O)(c2ccccc2)C23CC4CC(CC(C4)C2)C3)CN2CCC1CC2 (stereo partly drawn) [Compound 162, 1-(1-adamantyl)-3-[(3R)-3-methoxy-1-azabicyclo[2.2.2]oct-3-yl]-1-phenyl-2-propyn-1-ol] | High affinities
CO[C@]1(C#CC(O)(c2cccnc2)C2CCCCCC2)CN2CCC1CC2 (stereo partly drawn) [Compound 122, 1-cycloheptyl-3-[(3R)-3-methoxy-1-azabicyclo[2.2.2]oct-3-yl]-1-(3-pyridinyl)-2-propyn-1-ol] | High affinities
OC(C#CC1(F)CN2CCC1CC2)(c1ccccc1)C1CCCCC1 (stereo not drawn) [Compound 111, 1-cyclohexyl-3-(3-fluoro-1-azabicyclo[2.2.2]oct-3-yl)-1-phenylprop-2-yn-1-ol] | High affinities
CO[C@]1(C#CC(O)(c2ccccc2)C2CCCCCCC2)CN2CCC1CC2 (stereo partly drawn) [Compound 91, 1-cyclooctyl-3-[(3R)-3-methoxy-1-azabicyclo[2.2.2]oct-3-yl]-1-phenyl-2-propyn-1-ol] | High affinities
CO[C@]1(C#CC(O)(c2ccccc2)C2CCSCC2)CN2CCC1CC2 (stereo partly drawn) [Compound 173, 3-[(3R)-3-methoxy-1-azabicyclo[2.2.2]oct-3-yl]-1-phenyl-1-tetrahydro-2H-thiopyran-4-yl-2-propyn-1-ol] | High affinities
CCC(CC)C(O)(C#C[C@@]1(OC)CN2CCC1CC2)c1ccccc1 (stereo partly drawn) [Compound 168, 4-ethyl-1-[(3R)-3-methoxy-1-azabicyclo[2.2.2]oct-3-yl]-3-phenyl-1-hexyn-3-ol] | High affinities
CO[C@]1(C#C[C@](O)(c2ccccc2)C2CCCCCC2)CN2CCC1CC2 [Compound 117, (1R)-1-cycloheptyl-3-[(3R)-3-methoxy-1-azabicyclo[2.2.2]oct-3-yl]-1-phenyl-2-propyn-1-ol] | High affinities
CO[C@]1(C#CC(O)(CC(C)(C)C)c2cccs2)CN2CCC1CC2 (stereo partly drawn) [Compound 185, 1-[(3R)-3-methoxy-1-azabicyclo[2.2.2]oct-3-yl]-5,5-dimethyl-3-(2-thienyl)-1-hexyn-3-ol] | High affinities
